This assay deals with 3T3-L1 cells. The assay is described as follows: Glucose transport assay. The following applies: differentiated 3T3-L1 preadipocyte cell line, in the absence of insulin; 0.1 μM to 500 μM, 1-4 hours. The format is cell-based. The text has this:
This assay was used to assess the ability of the compounds of the invention to inhibit phosphatase activity that is involved in the signaling pathway that regulates the insulin-induced facilitated transport of glucose into adipocytes. […] Any compounds of the invention may be tested in this assay.
The cell line used for the glucose transport assay was 3T3-L1, a preadipocyte cell line (American Type Culture Collection CCL92.1) which overexpress the insulin receptor. The 3T3-L1 cells were first differentiated by treating cells under confluent growth in DMEM containing 10% fetal bovine serum (FBS) with 0.5 mM 3-isobutyl-1-methyl-xanthine, 5 μg/ml porcine insulin, […] dexamethasone for 2 days. The cells were then grown in DMEM containing 10% FBS and 5 μg/ml porcine insulin for two days, after which the cells were cultured in DMEM containing only 10% FBS.
Cells for use in the assay were first grown overnight in DMEM media and 1% FBS at 37° C. at 5% CO2. Two hours before use, the overnight media was replaced with serum free DMEM containing 5 mM glucose. […] The wells were washed each with 200 μl PBS which was transferred to the corresponding scintillation vial. ^3 H radioactivity was counted with a Beckman counter.

This note sets out measurements from patent US5602171A, “Methods of inhibiting phosphatase activity and treatment of disorders associated therewith using naphthopyrones and derivatives thereof” (Sugen Inc., priority 1995, dated 1997).

Each structure is given as a SMILES string.

Turning to `CC1CC(=O)c2c(cc3c(-c4c(O)cc(O)c5c(O)c6c(cc45)OC(C)CC6=O)c(O)cc(O)c3c2O)O1` (stereo not shown) [Compound 1], the “uptake of 2-deoxy-3H-glucose” value is given as “Dose response effect”.
